Assay results: patent publication US12622965B2, “Therapeutical tools and methods using temperature-sensitive receptors for treating blindness” (FRIEDRICH MIESCHER INSTITUTE FOR BIOMEDICAL RESEARCH, priority 2020, dated 2026)

Test system: HEK cells expressing TRPV1.459-6x-His, TRPV1.465-6x-His or untagged TRPV1
Assay: whole cell voltage clamp in HEK cells expressing TRPV1 variants, activated by capsaicin
Type: cell-based
Conditions: TRPV1 agonist capsaicin 2.5 μM bath applied; voltage clamp −60 mV; mean±s.e.m
Text: First, they developed a system based on rat TRPV1 channels and gold nanorods with absorption maxima at 915 nm. 915 nm was selected to ensure low water absorption. […] To measure if tagged channels are functional, they performed whole cell voltage clamp in HEK cells expressing TRPV1.459-6x-His, TRPV1.465-6x-His or untagged TRPV1 while activating the channels by TRPV1 agonist capsaicin. The size of evoked currents were similar between TRPV1.465-6x-His and TRPV1 (Mann-Whitney U test, P=0.8551; TRPV1.465-6x-His, 1633±164 pA, […] 15 cells; TRPV1, 1766±276 pA, n=14 cells; mean±s.e.m), but less in TRPV1.459-6x-His (Mann-Whitney U test, P=0.0207; TRPV1.459-6x-His, 976±118 pA, n=19 cells; mean±s.e.m). Therefore, they used TRPV1.465-6x-His (rTRPV1) in subsequent experiments.
For HEK293T cell experiments, cells were maintained at 37° C. on poly-D-lysine/laminin coated coverslips (GG-12-Laminin, Neuvitro) in DMEM supplemented with 10% fetal bovine serum. Cells were transfected with plasmids containing TRP variants using branched PEI. Cells were perfused in oxygenated Ringer's medium containing 110 mM NaCl, 2.5 mM KCl, 1 mM CaCl2, 1.6 mM MgCl2, 10 mM D-glucose and 22 mM NaHCO3 at ˜36° C. for the duration of the experiment. […] Data was analyzed offline using MATLAB (MathWorks).

TRPV1.465-6x-His: rat TRPV1 channel with 6x-His epitope tag inserted in the first extracellular loop after amino acid 465; delivered by AAV
size of evoked currents: 1633±164 pA
